Laboratory results as given in US8124647B2 (priority 2002, dated 2012).

Biological target: T1, human androgen receptor (Homo sapiens, UniProt P10275)
T1 construct: expressed in transfected cells; host or cells: CHO cells, cell line CHO-AR-pMMTV-LUC 1G12-A5-CA
T1 sequence (P10275 1-920): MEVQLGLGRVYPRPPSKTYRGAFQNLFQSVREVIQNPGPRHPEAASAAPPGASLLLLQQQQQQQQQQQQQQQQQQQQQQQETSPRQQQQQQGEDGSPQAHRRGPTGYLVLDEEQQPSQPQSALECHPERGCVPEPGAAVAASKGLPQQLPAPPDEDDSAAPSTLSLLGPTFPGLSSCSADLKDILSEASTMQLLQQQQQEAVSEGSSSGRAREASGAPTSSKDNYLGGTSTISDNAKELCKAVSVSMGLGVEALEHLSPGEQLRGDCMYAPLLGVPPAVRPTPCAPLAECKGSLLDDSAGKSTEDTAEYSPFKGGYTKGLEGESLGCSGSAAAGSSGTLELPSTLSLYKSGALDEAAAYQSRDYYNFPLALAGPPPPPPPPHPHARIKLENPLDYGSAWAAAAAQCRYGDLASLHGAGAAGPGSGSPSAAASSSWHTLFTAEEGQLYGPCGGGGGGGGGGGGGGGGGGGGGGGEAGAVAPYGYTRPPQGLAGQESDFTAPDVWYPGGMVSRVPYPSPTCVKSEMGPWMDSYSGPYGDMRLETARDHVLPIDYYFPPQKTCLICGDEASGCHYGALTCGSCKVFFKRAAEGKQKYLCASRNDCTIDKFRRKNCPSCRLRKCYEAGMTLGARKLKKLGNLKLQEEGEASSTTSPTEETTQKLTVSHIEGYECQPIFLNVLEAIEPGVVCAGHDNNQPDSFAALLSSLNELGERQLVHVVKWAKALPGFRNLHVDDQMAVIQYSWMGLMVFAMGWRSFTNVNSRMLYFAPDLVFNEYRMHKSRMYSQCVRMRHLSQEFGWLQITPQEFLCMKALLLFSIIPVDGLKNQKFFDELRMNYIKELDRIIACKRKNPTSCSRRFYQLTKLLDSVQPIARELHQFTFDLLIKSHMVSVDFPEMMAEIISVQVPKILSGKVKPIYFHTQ
Experiment: androgenic activity (EC50, potency, efficacy), transactivation bioassay in CHO-AR-pMMTV-LUC cells in the presence of 0.1 μmol/l onapristone (Table 5)
Format: cell-based
Conditions: CHO-AR-pMMTV-LUC cells; for Emax: read-out: ago efficacy; for ago potency: potency expressed as percentage of DHT activity, in the presence of 0.1 μmol/l onapristone
Experimental: The androgenic activity (EC50, potency, and efficacy) of the compounds in Table 5 was determined in an in vitro bioassay of Chinese hamster ovary (CHO) cells stably transfected with the human androgen receptor expression plasmid and a reporter plasmid in which the MMTV promoter is linked to the luciferase reporter gene. The cell line CHO-AR-pMMTV-LUC 1G12-A5-CA is described in Schoonen et al. (J. Steroid Biochem. Moles. Biol. […]; 74: 213-222). The androgen receptor activity of compounds was determined in the presence of 0.1 μmol/l onapristone. The maximal efficacy in the presence of 100 nmol/l DHT was set as 100%. The potencies are expressed as percentage of DHT activity.

[1] = maximal intrinsic activity, activity in the presence of 100 nM DHT set at 1.00, 0.1 μmol/l onapristone

For O=C(NC1CC1)c1ccc2c(Sc3ccccc3[N+](=O)[O-])cn(Cc3cccnc3)c2c1 [Compound 114, 3-(2-Nitro-phenylsulfanyl)-1-pyridin-3-ylmethyl-1H-indole-6-carboxylic acid cyclopropylamide], the Emax [1] was greater than 80% and the ago potency was “+ (between 1% and 5%)”.
For COc1ccc2c(Sc3ccccc3[N+](=O)[O-])cn(Cc3cncnc3)c2c1 [Compound 115, 6-Methoxy-3-(2-nitro-phenylsulfanyl)-1-pyrimidin-5-ylmethyl-1H-indole], the Emax [1] was 50 to 80% and the ago potency was “++ (>5%)”.
COc1ccc2c(Sc3ccccc3[N+](=O)[O-])cn(Cc3ccncn3)c2c1 [Compound 116, 6-Methoxy-3-(2-nitro-phenylsulfanyl)-1-pyrimidin-4-ylmethyl-1H-indole] was tested, and the Emax [1] was 50 to 80% and the ago potency was “+ (between 1% and 5%)”.
For COc1ccc2c(Sc3ccccc3[N+](=O)[O-])cn(Cc3cnccn3)c2c1 [Compound 117, 6-Methoxy-3-(2-nitro-phenylsulfanyl)-1-pyrazin-2-ylmethyl-1H-indole], the Emax [1] was 50 to 80% and the ago potency was “+ (between 1% and 5%)”.
For O=CNc1ccc2c(Sc3ccccc3[N+](=O)[O-])cn(Cc3cncnc3)c2c1 [Compound 118, N-[3-(2-Nitro-phenylsulfanyl)-1-pyrimidin-5-ylmethyl-1H-indol-6-yl]-formamide], the Emax [1] was 50 to 80% and the ago potency was “++ (>5%)”.
N#Cc1ccc2c(Sc3ccccc3[N+](=O)[O-])cn(Cc3ccccn3)c2c1 [Compound 119, 3-(2-Nitro-phenylsulfanyl)-1-pyridin-2-ylmethyl-1H-indole-6-carbonitrile] was tested, and the Emax [1] was greater than 80% and the ago potency was “++ (>5%)”.
In the case of Cl.N#Cc1ccc2c(Sc3ccccc3[N+](=O)[O-])cn(Cc3ccccn3)c2c1 [Compound 120, 3-(2-Nitro-phenylsulfanyl)-1-pyridin-2-ylmethyl-1H-indol-6-carbonitrile monohydrochloride], the ago efficacy [1] is reported as “++ (≧0.80)” and the ago potency is reported as “++ (>5%)”.
In the case of N#Cc1ccc2c(Sc3ccccc3[N+](=O)[O-])cn(Cc3cccnc3)c2c1 [Compound 121, 3-(2-Nitro-phenylsulfanyl)-1-pyridin-3-ylmethyl-1H-indole-6-carbonitrile], the Emax [1] is reported as greater than 80% and the ago potency is reported as “+ (between 1% and 5%)”.
In the case of N#Cc1ccc2c(Sc3ccccc3[N+](=O)[O-])cn(Cc3ccncc3)c2c1 [Compound 122, 3-(2-Nitro-phenylsulfanyl)-1-pyridin-4-ylmethyl-1H-indole-6-carbonitrile], the Emax [1] is reported as 50 to 80% and the ago potency is reported as “+ (between 1% and 5%)”.
For N#Cc1ccc2c(Sc3ccccc3[N+](=O)[O-])cn(Cc3cncnc3)c2c1 [Compound 123, 3-(2-Nitro-phenylsulfanyl)-1-pyrimidin-5-ylmethyl-1H-indole-6-carbonitrile], the Emax [1] was greater than 80% and the ago potency was “++ (>5%)”.
For N#Cc1ccc2c(Sc3ccccc3[N+](=O)[O-])cn(Cc3ccncn3)c2c1 [Compound 124, 3-(2-Nitro-phenylsulfanyl)-1-pyrimidin-4-ylmethyl-1H-indole-6-carbonitrile], the Emax [1] was greater than 80% and the ago potency was “++ (>5%)”.
In the case of N#Cc1cccc(Cn2cc(Sc3ccccc3[N+](=O)[O-])c3ccc(C#N)cc32)c1 [Compound 125, 1-(3-Cyano-benzyl)-3-(2-nitro-phenylsulfanyl)-1H-indole-6-carbonitrile], the Emax [1] is reported as greater than 80% and the ago potency is reported as “+ (between 1% and 5%)”.
